Source: the NIST ThermoML archive (doi:10.1021/acs.jced.6b00812)

Experiment: molar heat capacity at constant pressure; mn = molality of the nth substance listed, in mol/kg
Details: 100 kPa, Liquid, Small sample (50 mg) DSC

[Cl-].[K+] [potassium chloride] + O
molar heat capacity at constant pressure [J/K/mol]
Details	m1 = 0.53	m1 = 0.97	m1 = 1.41	m1 = 1.86	m1 = 2.34	m1 = 2.79	m1 = 3.25	m1 = 3.72	m1 = 4.15	m1 = 4.62
238.15 K	–	–	–	–	–	–	–	–	65.84	–
248.15 K	–	–	–	70.06	–	68.17	67.44	66.86	66.5	–
258.15 K	74.76	72.91	71.45	70.26	69.43	68.59	68.08	67.29	66.94	–
268.15 K	74.2	72.72	71.45	70.46	69.64	68.79	68.29	67.72	67.16	66.63
278.15 K	73.83	72.72	71.64	70.66	69.84	69	68.5	67.93	67.38	66.85
288.15 K	73.83	72.72	71.64	70.66	69.84	69.21	68.71	67.93	67.6	67.08
298.15 K	73.83	72.72	71.64	70.86	70.04	69.42	68.71	68.15	67.6	67.08

[Cl-].[Cl-].[Mg+2] [magnesium chloride] + O
molar heat capacity at constant pressure [J/K/mol]
Details	m1 = 0.58	m1 = 1.12	m1 = 1.67	m1 = 2.19	m1 = 2.74	m1 = 3.36	m1 = 3.88	m1 = 4.46	m1 = 5.04	m1 = 5.63
168.15 K	–	–	–	–	–	49.33	49.35	–	–	–
178.15 K	–	–	–	–	–	51.34	51.42	51.55	–	–
188.15 K	–	–	–	–	–	53.36	53.27	53.21	–	–
198.15 K	–	–	–	–	–	55.38	55.11	54.88	–	–
208.15 K	–	–	–	–	–	57.17	56.72	56.54	–	–
218.15 K	–	–	–	–	–	58.74	58.34	57.97	57.68	57.28
228.15 K	–	–	–	62	61.04	60.09	59.49	59.15	58.66	58.54
238.15 K	–	–	65.07	63.46	62.34	61.43	60.87	60.34	59.88	59.54
248.15 K	–	68.59	65.88	64.3	63.42	62.33	61.8	61.29	60.61	60.55
258.15 K	72.24	68.98	66.69	65.35	64.29	63.23	62.49	62	61.59	61.3
268.15 K	72.24	69.57	67.5	66.19	65.16	64.12	63.41	62.72	62.08	62.06
278.15 K	72.24	69.96	67.9	66.61	65.59	64.57	63.87	63.19	62.81	62.56
288.15 K	72.43	70.16	68.31	67.23	66.02	65.02	64.33	63.67	63.3	63.06
298.15 K	72.43	70.55	68.71	67.44	66.45	65.47	64.79	64.14	63.55	63.56

[Ca+2].[Cl-].[Cl-] [calcium chloride] + O
molar heat capacity at constant pressure [J/K/mol]
Details	m1 = 0.49	m1 = 1.17	m1 = 1.83	m1 = 2.51	m1 = 3.14	m1 = 3.8	m1 = 4.41	m1 = 5.1	m1 = 5.76	m1 = 6.39
168.15 K	–	–	–	–	–	56.81	58.42	–	–	–
178.15 K	–	–	–	–	–	57.77	59.16	–	–	–
188.15 K	–	–	–	–	–	58.49	59.66	–	–	–
198.15 K	–	–	–	–	–	59.45	60.4	–	–	–
208.15 K	–	–	–	–	–	60.41	61.15	–	–	–
218.15 K	–	–	–	–	–	61.37	61.9	–	–	–
228.15 K	–	–	–	–	62.08	62.09	62.64	–	–	–
238.15 K	–	–	–	63.47	63	63.05	63.39	64.08	–	–
248.15 K	–	68.18	65.68	64.35	63.92	63.77	64.13	64.6	–	–
258.15 K	72.68	68.77	66.51	65.23	64.61	64.48	64.63	65.37	66.09	–
268.15 K	72.49	69.37	67.14	65.89	65.3	65.2	65.38	65.89	66.62	–
278.15 K	72.68	69.77	67.77	66.55	65.76	65.68	65.87	66.66	67.42	67.93
288.15 K	72.68	69.97	68.19	66.99	66.22	66.16	66.37	67.18	67.96	68.2
298.15 K	72.87	70.37	68.61	67.43	66.91	66.64	67.12	67.7	68.49	68.76
